Assay results published in US20120129870A1, “PIPERAZINYL DERIVATIVES USEFUL AS MODULATORS OF THE NEUROPEPTIDE Y2 RECEPTOR” (priority 2007, published 2012).

Key:
NPY Y2 receptor [1] = biological target: T1, NPY Y2 receptor (Homo sapiens, UniProt P49146); assay: Neuropeptide Y2 radioligand binding assay ([125I]PYY, KAN-Ts membranes); parameters: endogenous in cells; host or cells: KAN-Ts cells (membrane preparation); settings: for IC50: KAN-Ts membranes endogenously expressing Y2, [125I]PYY (80 pM), 1 h at rt; for Ki: apparent Ki=IC50/(1+C/KD)
T1 sequence (P49146 1-381): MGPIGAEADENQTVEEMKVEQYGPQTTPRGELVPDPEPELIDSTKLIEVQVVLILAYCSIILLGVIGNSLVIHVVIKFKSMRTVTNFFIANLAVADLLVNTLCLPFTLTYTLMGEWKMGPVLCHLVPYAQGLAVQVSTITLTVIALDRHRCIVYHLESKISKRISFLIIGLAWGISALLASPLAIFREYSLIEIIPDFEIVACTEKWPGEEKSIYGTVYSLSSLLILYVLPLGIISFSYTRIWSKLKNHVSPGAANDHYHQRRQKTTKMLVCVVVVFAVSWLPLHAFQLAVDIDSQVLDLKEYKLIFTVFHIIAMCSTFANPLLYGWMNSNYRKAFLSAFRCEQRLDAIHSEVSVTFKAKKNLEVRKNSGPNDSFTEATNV
Description: KAN-Ts endogenously expressing Y2 receptors were used for the radioligand binding assay. Cells were grown to confluence on 150 cm^2 tissue culture plates, washed with phosphate-buffered saline (PBS), and scraped into 50 mL tubes. After centrifugation, the supernatant was aspirated, and the pellets frozen and stored at −80° C. Thawed pellets were homogenized with a polytron tissue grinder for 15 sec in 20 mM Tris-HCl, 5 mM EDTA. The homogenate was centrifuged at 800×g for 5 min and the collected supernatant was recentrifuged at 25000×g for 25 min. The resulting pellet was resuspended in binding buffer (20 mM HEPES, 120 mM NaCl, 0.22 mM KH2PO4, 1.3 mM CaCl2, 0.8 mM MgSO4). Membranes were incubated with [^125I]PYY (80 pM) in the presence or absence of test compound for 1 h at rt. The reaction was stopped by filtration through GF/C filter plates pre-soaked in 0.3% polyethylenimine and subsequently washed with Tris 50 mM, 5 mM EDTA buffer. Plates were dried for 1 h in a 55° C. oven, scintillation fluid was added and the radioactivity was counted in a Packard TopCount. Specific binding to the NPY receptor subtypes was determined by radioactivity that was bound in the presence of […]. Each binding experiment was repeated three to eight times, each in duplicate. IC50 values (i.e. concentration of unlabelled peptide or antagonist required to compete for 50% of specific binding to the radioligand) were calculated using the GraphPad Prism software (GraphPad Software Inc., San Diego Calif.) with a fit to a sigmoidal dose response curve. Apparent K, values were calculated as Ki=IC50/(1+C/KD), where C is concentration of the radioligand.

NPY Y2 receptor [2] = biological target: T1, NPY Y2 receptor; assay: Neuropeptide Y2 pKB assay (FLIPR, KAN-Ts cells stably expressing chimeric G proteins); format: cell-based; settings: apparent pKB, modified Cheng-Prusoff correction
Description: The assay was performed using the fluorimetric imaging plate reader (FLIPR) format as described in Dautzenberg, F. M., Biochemical Pharmacology 2005, 69, 1493.
KAN-Ts cells stably expressing chimeric G proteins were seeded at a density of 100,000 cells into poly-d-lysine coated 384-well blackwall, clear-bottom microtiter plates (Corning, N.Y.). One day later, the medium was removed and 50 μl loading medium DMEM high glucose, without serum, supplemented with 10 mM HEPES-acid, 0.1% BSA, 5 mM probenecid and 2 μM Fluo-3AM was added. Cells were loaded for 1 h at 37° C., washed twice with 50 μl assay buffer (5 mM HEPES-acid, 140 mM NaCl, 1 mM MgCl2, 5 mM KCl, 10 mM glucose) and then 30 μl assay buffer was added. Cells were further pre-incubated at room temperature before adding agonists or agonists plus antagonists in 20 μl assay buffer and then measured on a T-channel fluorometric imaging plate reader (FLIPR, Molecular Devices, Sunnyvale, Calif.). Antagonistic potency values were converted to apparent pKB values using a modified Cheng-Prusoff correction. Apparent pKB was calculated as pKB=−log IC50/1+[conc agonist/EC50].

Row | Structure (SMILES) | IC50 (NPY Y2 receptor [1]) | Kb (NPY Y2 receptor [2]) | Ki (NPY Y2 receptor [1])
1 | CCC(CC)C(=O)Nc1ccc(N2CCN(C(c3ccccc3)c3ccccc3)CC2)c(F)c1 [Compound 4, N-[4-(4-Benzhydryl-piperazin-1-yl)-3-fluoro-phenyl]-2-ethyl-butyramide] | 33 nM | 79.4 nM | –
2 | CCC(CC)C(=O)Nc1ccc(N2CCN(C(c3ccccc3)c3ncco3)CC2)c(F)c1 (centres unmarked) [Compound 20, 2-Ethyl-N-{3-fluoro-4-[4-(oxazol-2-yl-phenyl-methyl)-piperazin-1-yl]-phenyl}-butyramide] | 40 nM | 50.1 nM | –
3 | CCc1nnc(C(c2ccccc2)N2CCN(c3ccc(NC(=O)C(CC)CC)cc3F)CC2)o1 (centres unmarked) [Compound 153, 2-Ethyl-N-(4-{4-[(5-ethyl-[1,3,4]-oxadiazol-2-yl)-phenyl-methyl]-piperazin-1-yl}-3-fluoro-phenyl)-butyramide] | 39 nM | 39.8 nM | –
4 | CCC(CC)C(=O)Nc1ccc(N2CCN(C(c3ccccc3)c3ncco3)CC2)c(C)c1 (centres unmarked) [Compound 85, 2-Ethyl-N-{3-methyl-4-[4-(oxazol-2-yl-phenyl-methyl)-piperazin-1-yl]-phenyl}-butyramide] | 75 nM | 126 nM | –
5 | Cc1cc(NC(=O)C2CC2)ccc1N1CCN(C(c2ccccc2)c2ncco2)CC1 (centres unmarked) [Compound 81, Cyclopropanecarboxylic acid {3-methyl-4-[4-(oxazol-2-yl-phenyl-methyl)-piperazin-1-yl]-phenyl}amide] | 1700 nM | – | –
6 | CCCC(=O)Nc1ccc(N2CCN(C(c3ccccc3)c3ncco3)CC2)c(F)c1 (centres unmarked) [Compound 100, N-{3-Fluoro-4-[4-(oxazol-2-yl-phenyl-methyl)-piperazin-1-yl]-phenyl}-butyramide] | 1300 nM | – | –
7 | CCC(CC)C(=O)Nc1ccc(N2CCN(C(c3ncco3)C3CCC3)CC2)c(F)c1 (centres unmarked) [Compound 116, N-{4-[4-(Cyclobutyl-oxazol-2-yl-methyl)-piperazin-1-yl]-3-fluoro-phenyl}-2-ethyl-butyramide] | 410 nM | – | –
8 | O=C(Nc1ccc(N2CCN(C(c3ccccc3)c3ncco3)CC2)c(F)c1)C1CCC(F)(F)CC1 (centres unmarked) [Compound 108, 4,4-Difluoro-cyclohexanecarboxylic acid {3-fluoro-4-[4-(oxazol-2-yl-phenyl-methyl)-piperazin-1-yl]-phenyl}-amide] | > 10000 nM | – | –
9 | CCC(CC)C(=O)Nc1ccc(N2CCN(C(c3ccccc3)c3nccn3C)CC2)c(F)c1 (centres unmarked) [Compound 64, 2-Ethyl-N-(3-fluoro-4-{4-[(1-methyl-1H-imidazol-2-yl)-phenyl-methyl]-piperazin-1-yl}-phenyl)-butyramide] | 170 nM | – | –
10 | Cc1ccnc(Nc2ccc(N3CCN(C(c4ccccc4)c4ncco4)CC3)c(F)c2)n1 (centres unmarked) [Compound 61, {3-Fluoro-4-[4-(oxazol-2-yl-phenyl-methyl)-piperazin-1-yl]-phenyl}-(4-methyl-pyrimidin-2-yl)-amine] | > 10000 nM | – | –
11 | CC(CC(F)(F)F)C(=O)Nc1ccc(N2CCN(C(c3ccccc3)c3ncco3)CC2)c(F)c1 (centres unmarked) [Compound 111, 4,4,4-Trifluoro-N-{3-fluoro-4-[4-(oxazol-2-yl-phenyl-methyl)-piperazin-1-yl]-phenyl}-2-methyl-butyramide] | 360 nM | – | –
12 | CC(C)C(=O)Nc1ccc(N2CCN(C(c3ccccc3)c3ncco3)CC2)c(F)c1 (centres unmarked) [Compound 72, N-{3-Fluoro-4-[4-(oxazol-2-yl-phenyl-methyl)-piperazin-1-yl]-phenyl}-isobutyramide] | 320 nM | – | –
13 | O=C(Nc1ccc(N2CCN(C(c3ccc(F)cc3)c3ncco3)CC2)c(F)c1)[C@@H]1CCOC1 (stereo in doubt) [Compound 127, Tetrahydro-furan-3-carboxylic acid (3-fluoro-4-{4-[(4-fluoro-phenyl)-oxazol-2-yl-methyl]-piperazin-1-yl}-phenyl)-amide] | > 5000 nM | – | –
14 | CC(=O)Nc1ccc(N2CCN(C(c3ccccc3)c3ncco3)CC2)c(C#N)c1 (centres unmarked) [Compound 103, N-{3-Cyano-4-[4-(oxazol-2-yl-phenyl-methyl)-piperazin-1-yl]-phenyl}-acetamide] | > 10000 nM | – | –
15 | Cc1cccnc1Nc1ccc(N2CCN(C(c3ccccc3)c3ncco3)CC2)c(F)c1 (centres unmarked) [Compound 57, {3-Fluoro-4-[4-(oxazol-2-yl-phenyl-methyl)-piperazin-1-yl]-phenyl}-(3-methyl-pyridin-2-yl)-amine] | > 10000 nM | – | –
16 | CCC(CC)C(=O)Nc1ccc(N2CCN(C(c3ccc(F)cc3)c3ncco3)CC2)c(F)c1 (centres unmarked) [Compound 120, 2-Ethyl-N-(3-fluoro-4-{4-[(4-fluoro-phenyl)-oxazol-2-yl-methyl]-piperazin-1-yl}-phenyl)-butyramide] | 770 nM | – | –
17 | CCC(CC)C(=O)Nc1ccc(N2CCN(C(c3ccc(F)cc3)C3CCC3)CC2)c(F)c1 (centres unmarked) [Compound 106, N-(4-{4-[Cyclobutyl-(4-fluoro-phenyl)-methyl]-piperazin-1-yl}-3-fluoro-phenyl)-2-ethyl-butyramide] | 250 nM | – | –

Further lines, results first:

Row | IC50 (NPY Y2 receptor [1]) | Kb (NPY Y2 receptor [2]) | Ki (NPY Y2 receptor [1]) | Structure (SMILES)
18 | 7 nM | 79.4 nM | – | CCC(CC)C(=O)Nc1ccc(N2CCN(C(c3ccccc3)c3nc4ccccc4o3)CC2)c(C#N)c1 (centres unmarked) [Compound 166, N-{4-[4-(Benzooxazol-2-yl-phenyl-methyl)-piperazin-1-yl]-3-cyano-phenyl}-2-ethyl-butyramide]
19 | 50 nM | 126 nM | – | CCC(CC)C(=O)Nc1cc(F)c(N2CCN(C(c3ccccc3)c3ncco3)CC2)c(F)c1 (centres unmarked) [Compound 243, N-{3,5-Difluoro-4-[4-(oxazol-2-yl-phenyl-methyl)-piperazin-1-yl]-phenyl}-2-ethyl-butyramide]
20 | 30 nM | 63.1 nM | – | CCC(CC)C(=O)Nc1ccc(N2CCN(C(c3ccccc3)c3noc(CF)n3)CC2)c(F)c1 (centres unmarked) [Compound 235, 2-Ethyl-N-(3-fluoro-4-{4-[(5-fluoromethyl-[1,2,4]-oxadiazol-3-yl)-phenyl-methyl]-piperazin-1-yl}-phenyl)-butyramide]
21 | 16 nM | 63.1 nM | – | CCC(CC)C(=O)Nc1ccc(N2CCN(C(c3ccccc3)c3ncco3)CC2)c(Br)c1 (centres unmarked) [Compound 237, N-{3-Bromo-4-[4-(oxazol-2-yl-phenyl-methyl)-piperazin-1-yl]-phenyl}-2-ethyl-butyramide]
22 | 39 nM | 126 nM | – | CCC(CC)C(=O)Nc1ccc(N2CCN(C(c3ccccc3)c3noc(-c4ccccc4)n3)CC2)c(F)c1 (centres unmarked) [Compound 240, 2-Ethyl-N-(3-fluoro-4-{4-[phenyl-(5-phenyl-[1,2,4]-oxadiazol-3-yl)-methyl]-piperazin-1-yl}-phenyl)-butyramide]
23 | – | 31.6 nM | 4.3 nM | CCC(CC)C(=O)Nc1ccc(N2CCN(C(c3ccccc3)c3cccnc3)CC2)c(C#N)c1 (centres unmarked) [Compound 317, N-{3-Cyano-4-[4-(phenyl-pyridin-3-yl-methyl)-piperazin-1-yl]-phenyl}-2-ethyl-butyramide]
24 | – | – | 84 nM | Cc1noc(C)c1C(=O)Nc1ccc(N2CCN(C(c3ccccc3)c3ccc(Cl)cc3)CC2)c(C#N)c1 (centres unmarked) [Compound 312, 3,5-Dimethyl-isoxazole-4-carboxylic acid (4-{4-[(4-chloro-phenyl)-phenyl-methyl]-piperazin-1-yl}-3-cyano-phenyl)-amide]
25 | 71 nM | – | – | CCC(CC)C(=O)Nc1ccc(N2CCN(C(c3ccccc3)c3nc(-c4ccccc4)no3)CC2)c(F)c1 (centres unmarked) [Compound 242, 2-Ethyl-N-(3-fluoro-4-{4-[phenyl-(3-phenyl-[1,2,4]-oxadiazol-5-yl)-methyl]-piperazin-1-yl}-phenyl)-butyramide]
